Measured values: patent publication US6821993B1, “Triazepine derivatives as neurotrophic agents” (Ortho-McNeil Pharmaceutical, Inc., priority 2001, dated 2004)

Experiments:
[1] = tested on: Primary Rat Hippocampal Cells; experiment: Neurite outgrowth assay in primary rat hippocampal cells; assay type: cell-based; details: MAP-2 immunofluorescence, embryonic day 18 rat hippocampal cells, 7 days in culture
Description: Hippocampal cells were dissected from the brains of embryonic day 18 rat pups and dissociated with trypsin (1 mg/mL) and trituration. Cells were seeded at 30,000 cells/well in 96-well plates filled with 100 μL MEM and 10% FBS. At 7 days in culture, cells were fixed with 4% paraformaldehyde and immuno-fluorescence is performed.
(§1) Cultures were incubated with normal horse serum (1:50; Vector Labs) or about 20 min, rinsed and then incubated with primary antibody, microtubule associated-protein 2 (anti-mouse MAP-2; 1:1000; Chemicon) for about 2 h at about RT. Following primary antibody, cultures were rinsed and incubated with fluorescein anti-mouse IgG (rat absorbed; 1:50; Vector Labs) for about 1 h. After fluorescein incubation, the cultures were rinsed and read in PBS on a fluorescent plate reader (excitation: 485 nm; emission: 530 nm). A compound was regarded as active if the neurite outgrowth response is greater than the mean DMSO-treated control response on the same plate. The response to test compound was reported as percent of DMSO-treated control. The signal-to-noise separation is consistent: the fluorescence from DMSO control wells is at least twofold greater than blank wells.

[2] = tested on: M17 human neuroblastoma cells; experiment: Neurite outgrowth assay in human M17 neuroblastoma cells; assay type: cell-based; details: MAP-2 immunofluorescence
Description: M17 human neuroblastoma cells were cultured in 1:1 ratio of EMEM and Ham's F12 with 1×NEAA and 10% FBS. The culture media contained 1×PSN antibiotic and was exchanged every other day, and the cells were passed in log phase near confluence.
as §1

[3] = tested on: Dorsal Root Ganglion (DRG); experiment: Dorsal Root Ganglion (DRG) culture neurite outgrowth; assay type: cell-based, rat; details: neurite outgrowth from DRG of newborn or 1-day-old CD rats; test compound 50-250 nM; examined on days 1-5
Description: DRG were dissected from newborn or 1-day-old CD rats and placed into PBS on ice. After rinsing twice with sterile plating medium, DRG were transferred to empty wells of a 6-well plate coated with polyornithine/laminin (Becton Dickinson Labware) using #7 curved forceps. Three ml/well of plating medium were then added very gently, so as not to disturb the DRG plating medium is Leibovitz's L-15 medium (Gibco), plus 0.6% glucose, 33 mM KCl, 10% FCS, 10 mM Hepes and penicillin/streptomycin/glutamine. After overnight incubation at about 37° C. in 5% CO2, this medium was replaced with 3 mL/well of assay medium [Leibovitz's L-15 medium plus 0.6% glucose, 1% FCS, 1% N-2 supplement (Gibco), 10 μM ara-C, 10 mM Hepes, and penicillin/streptomycin/glutamine] containing either vehicle (DMSO, 1/200,000), positive control (2-4 ng/mL NGF) or test compound (50-250 nM). All media were prepared fresh daily. DRG were microscopically examined for neurite outgrowth on days 1-5.

SMILES: O=C1[C@@H]2CSCN2C(=O)C(c2cccs2)=NN1CCC(c1ccccc1)c1ccccc1 [(6), 1H,7H-thiazolo[4,3-d][1,2,5]triazepine-1,5(2H)-dione, 2-(3,3-diphenylpropyl)-9,9a-dihydro-4-(2-thienyl)-, (9aR)-]
- Rat Hippocampal Cell Response [1]: 105% of DMSO-treated control
- M17 Cell Response [2]: <100% of DMSO-treated control

SMILES: CCC(C)(C)C1=NNC(=O)C2CCCCN2C1=O (stereo not shown) [(4)]
- Rat Hippocampal Cell Response [1]: 140% of DMSO-treated control
- M17 Cell Response [2]: <100% of DMSO-treated control

SMILES: CCC(C)(C)C1=NNC(=O)[C@@H]2CCCN2C1=O [(1), 1H-pyrrolo[2,1-d][1,2,5]triazepine-1,5(2H)-dione, 4-(1,1-dimethylpropyl)-7,8,9,9a-tetrahydro-, (9aS)-]
- Rat Hippocampal Cell Response [1]: 123% of DMSO-treated control
- DRG [3]: + (An experiment was considered positive (+) if the instant compound induced neurites of ≧1 diameter of the DRG)
- M17 Cell Response [2]: 115% of DMSO-treated control

SMILES: CCC(C)(C)C1=NN(CCCc2ccccc2)C(=O)[C@@H]2CCCN2C1=O [(2), 1H-pyrrolo[2,1-d][1,2,5]triazepine-1,5(2H)-dione, 4-(1,1-dimethylpropyl)-7,8,9,9a-tetrahydro-2-(3-phenylpropyl)-, (9aS)-]
- Rat Hippocampal Cell Response [1]: <100% of DMSO-treated control
- M17 Cell Response [2]: <100% of DMSO-treated control

SMILES: O=C1NN=C(c2cccs2)C(=O)N2CSC[C@@H]12 [(5), 1H,7H-thiazolo[4,3-d][1,2,5]triazepine-1,5(2H)-dione, 9,9a-dihydro-4-(2-thienyl)-, (9aR)-]
- Rat Hippocampal Cell Response [1]: 105% of DMSO-treated control
- M17 Cell Response [2]: <100% of DMSO-treated control

SMILES: CCC(C)(C)C1=NN(CCCc2cccnc2)C(=O)[C@@H]2CCCN2C1=O [(3), 1H-pyrrolo[2,1-d][1,2,5]triazepine-1.5(2H)-dione, 4-(1,1-dimethylpropyl)-7,8,9,9a-tetrahydro-2-[3-(3-pyridinyl)propyl]-, (9aS)-]
- Rat Hippocampal Cell Response [1]: 145% of DMSO-treated control
- M17 Cell Response [2]: <100% of DMSO-treated control
